# Biological target: T1, human ether-a-go-go-related gene (hERG) potassium channel (Homo sapiens, UniProt Q12809)
# T1 construct: gene KCNH2; WT hERG stably expressed in HEK293 cells
# Experiment: whole-cell patch clamp of hERG tail current, immediate perfusion; acute block lost in Y652A and F656V mutants
# Type: cell-based
# T1 sequence (Q12809 whole entry): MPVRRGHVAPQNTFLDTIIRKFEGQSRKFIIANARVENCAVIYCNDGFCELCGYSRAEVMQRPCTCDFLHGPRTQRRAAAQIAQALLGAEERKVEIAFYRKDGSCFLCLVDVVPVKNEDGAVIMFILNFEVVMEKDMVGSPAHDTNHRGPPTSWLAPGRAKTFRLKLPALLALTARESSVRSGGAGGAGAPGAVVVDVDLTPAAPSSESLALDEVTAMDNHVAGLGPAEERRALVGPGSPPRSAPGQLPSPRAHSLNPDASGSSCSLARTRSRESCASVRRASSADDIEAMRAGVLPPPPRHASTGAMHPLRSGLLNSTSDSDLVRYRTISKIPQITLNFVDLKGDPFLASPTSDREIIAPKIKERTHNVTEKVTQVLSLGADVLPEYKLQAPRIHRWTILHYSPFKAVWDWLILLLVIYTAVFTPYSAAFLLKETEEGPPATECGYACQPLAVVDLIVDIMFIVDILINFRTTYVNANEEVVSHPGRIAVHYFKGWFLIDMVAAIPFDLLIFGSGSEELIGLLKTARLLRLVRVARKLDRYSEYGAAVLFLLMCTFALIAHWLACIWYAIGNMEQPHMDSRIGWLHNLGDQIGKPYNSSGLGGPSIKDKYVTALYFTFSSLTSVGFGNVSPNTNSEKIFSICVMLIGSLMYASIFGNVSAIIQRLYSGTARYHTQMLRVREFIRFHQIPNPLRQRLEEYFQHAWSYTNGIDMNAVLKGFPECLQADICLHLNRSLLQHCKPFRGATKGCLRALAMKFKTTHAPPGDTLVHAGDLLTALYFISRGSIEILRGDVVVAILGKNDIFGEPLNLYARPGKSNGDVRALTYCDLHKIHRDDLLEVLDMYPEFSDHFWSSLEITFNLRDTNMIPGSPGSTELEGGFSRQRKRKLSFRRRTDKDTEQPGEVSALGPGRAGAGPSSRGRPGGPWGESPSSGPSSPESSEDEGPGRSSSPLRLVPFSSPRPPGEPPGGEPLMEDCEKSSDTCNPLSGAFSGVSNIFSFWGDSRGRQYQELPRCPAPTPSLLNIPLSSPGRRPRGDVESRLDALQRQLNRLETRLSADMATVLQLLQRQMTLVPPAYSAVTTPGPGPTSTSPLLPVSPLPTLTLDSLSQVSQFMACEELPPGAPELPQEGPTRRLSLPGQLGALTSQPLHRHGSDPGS
smiles,measurement,value
"COc1ccc2c(c1OC)CN1CCc3cc4c(cc3C1=C2)OCO4 [DHB, dihydroberberine]",IC50,10.5 µM
